Experimental data taken from patent US20240189287A1, “PERIPHERALLY RESTRICTED CB1 RECEPTOR BLOCKERS AND USES THEREOF” (BIONANOSIM (BNS) LTD, priority 2021, published 2024).
Entries after “also recorded” stand apart in the source; their conditions may differ. Like-named read-outs stand apart in the source and are kept apart here.

Tests used:
[1] = test system: Salmonella typhimurium (TA98, TA100); settings: for increase in reversion over the negative control: TA98 and TA100, with and without S9
[2] = Tissue distribution: brain, plasma and liver levels after oral dosing; assay type: in vivo, C57BL/6J mice
Description: Tissue distribution and pharmacokinetics: Tissue levels of antagonist: 3 male C57BL/6J mice (7-9 weeks, PO group) were used in this study. Mice were fasted prior to administration of test article and had access to food 4 hours post dosing. Appropriate amount of test article was accurately weighted and mixed with the appropriate volume of vehicle to get a clear oral solution. The formulation was prepared on the day of dosing, and mice were dosed via oral gavage up to 4 hr after formulation was prepared. After 1 hour, mice were scarified and about 200 μL blood was collected from cardiac puncture followed by plasma preparation. Brain and liver were removed and further processed. Dose formulation and sample analysis was performed by LC-MS/MS method.
The peripherality of selected BB8 conjugates (BNS) was evaluated in vivo measuring their respective brain, plasma, and liver levels 1 hr following 10 mg/kg oral administration.

P-gp (MDR1, ABCB1) = assay: MDR1-MDCK II cell permeation assay (bi-directional permeability, P-gp efflux); assay type: in vitro ADME; settings: dog, MDCK-MDR1, pH 7.4
Description: (§1) Test and reference compounds were diluted with transport buffer (HBSS with 10 mM Hepes, pH 7.4) from stock solution to a concentration of 2 μM (DMSO<1%) and applied to the apical or basolateral side of the cell monolayer. Permeation of the test compounds from A to B direction or B to A direction was determined in duplicate with/without P-gp inhibitor (GF120918, 10 μM). […] The plate was incubated for 2.5 hours in CO2 incubator at 37±1° C., with 5% CO2 at saturated humidity without shaking. In addition, the efflux ratio of each compound was also determined. Test and reference compounds were quantified by LC-MS/MS analysis based on the peak area ratio of analyte/IS.
(§2) The in vitro bi-directional permeability across MDR1-MDCKII cells including P-glycoprotein (Pgp, ABCB1) efflux in the presence and absence of a P-gp inhibitor is an indicator as to the tendency of an orally administered compound to penetrate the brain.

MDR1-MDCKII cells = assay: as above; assay type: in vitro ADME
Description: as §1, §2

hERG potassium channels = hERG potassium channels (Homo sapiens (Human), UniProt Q12809); assay: hERG assay, automated patch clamp (SyncroPatch 384PE); assay type: cell-based; settings: for potential for cardiotoxicity (QT prolongation): acceptance criteria IC50>100* Ki; for IC50: whole cell hERG currents
hERG potassium channels, sequence (Q12809 whole entry): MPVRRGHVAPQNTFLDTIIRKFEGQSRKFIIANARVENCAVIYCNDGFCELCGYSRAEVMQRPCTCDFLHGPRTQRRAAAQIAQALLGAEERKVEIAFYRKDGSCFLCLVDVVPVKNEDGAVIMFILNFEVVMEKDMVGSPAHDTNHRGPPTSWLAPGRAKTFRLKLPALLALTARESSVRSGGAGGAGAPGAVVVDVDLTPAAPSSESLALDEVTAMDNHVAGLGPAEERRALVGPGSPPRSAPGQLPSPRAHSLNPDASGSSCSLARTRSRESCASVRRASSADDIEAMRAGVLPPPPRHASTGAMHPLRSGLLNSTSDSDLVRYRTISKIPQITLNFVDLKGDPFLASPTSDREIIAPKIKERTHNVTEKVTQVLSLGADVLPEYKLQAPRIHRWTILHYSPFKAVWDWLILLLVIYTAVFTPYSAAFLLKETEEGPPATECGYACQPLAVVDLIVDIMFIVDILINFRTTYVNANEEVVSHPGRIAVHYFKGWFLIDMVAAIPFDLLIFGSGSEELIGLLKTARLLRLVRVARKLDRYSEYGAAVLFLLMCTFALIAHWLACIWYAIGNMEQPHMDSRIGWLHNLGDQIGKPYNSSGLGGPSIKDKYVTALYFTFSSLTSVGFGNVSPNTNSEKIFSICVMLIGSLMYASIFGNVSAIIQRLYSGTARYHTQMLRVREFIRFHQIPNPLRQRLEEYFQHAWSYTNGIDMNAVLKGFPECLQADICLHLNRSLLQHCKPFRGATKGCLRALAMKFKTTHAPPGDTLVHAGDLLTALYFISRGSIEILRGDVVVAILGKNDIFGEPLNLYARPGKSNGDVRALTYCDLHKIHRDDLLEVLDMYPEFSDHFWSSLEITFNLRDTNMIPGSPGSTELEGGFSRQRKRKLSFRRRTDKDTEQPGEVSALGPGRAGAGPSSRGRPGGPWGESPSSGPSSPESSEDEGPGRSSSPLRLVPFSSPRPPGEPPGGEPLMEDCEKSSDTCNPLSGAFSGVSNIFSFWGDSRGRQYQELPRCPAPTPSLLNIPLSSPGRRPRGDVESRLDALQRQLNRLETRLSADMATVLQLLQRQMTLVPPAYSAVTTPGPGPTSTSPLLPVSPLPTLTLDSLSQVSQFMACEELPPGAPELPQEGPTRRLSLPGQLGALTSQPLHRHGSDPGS

[3] = test system: DIO (Diet-Induced-Obese) mice; assay: In vivo efficacy study in Diet Induced Obesity (DIO) model; set-up: species or system C57BL/6J mice
Description: In vivo efficacy study in Diet Induced Obesity (DIO) model: Male C57BL/6J mice were kept on a high fat diet for 24 weeks. […] Thereafter, metabolic assessment was performed in order to evaluate the efficacy of the treatment. The efficacy was evaluated by measurements of the following parameters: • 1. Body weight and food intake, • 2. Total energy expenditure (TEE) and respiratory quotient (RQ). • 3. Fat and Carbohydrate oxidation (FO and CHO, respectively), • 4. Total ambulation, • 5. Glucose homeostasis, • 6. Hepatic Steatosis and Liver Injury, • 7. Lipid profile, • 8. Kidney function.
Animals: The experimental protocol used is approved by the Institutional Animal Care and Use Committee of the Hebrew University. Male, 25 weeks old, C57BL/6J mice were purchased from Jackson laboratories. Mice were maintained under a 12-h light/dark cycle and fed ad libitum. To maintain diet-induced obesity, C57BL/6J mice were fed with high-fat diet (HFD) (60% of calories from fat, 20% from protein, and 20% from carbohydrates; Research Diet, D12492) for overall 30 weeks.
[…] Body weight and food intake were monitored daily. Total body fat and lean masses were determined by EchoMRI-100H™ (Echo Medical Systems LLC, Houston, TX, USA). 24 h urine was collected 2-4 days before euthanasia using mouse metabolic cages (CCS2000 Chiller System, Hatteras Instruments, NC, USA). At the end of the observation period, mice were euthanized by a cervical dislocation under anesthesia, the kidneys, liver, brain, spleen, fat, and pancreas were removed, and samples were fixed in buffered 4% formalin (for histopathological analysis) or snap frozen (for biochemistry analysis). Trunk blood was collected for determining the biochemical parameters.
Multi-parameter metabolic assessment: Metabolic profile of the mice was assessed by using the Promethion High-Definition Behavioral Phenotyping System
(Sable Instruments, Inc., Las Vegas, NV, USA). Data acquisition and instrument control were performed using MetaScreen software version 2.2.18.0, and the obtained raw data were processed using ExpeData version 1.8.4 using an analysis script detailing all aspects of data transformation. Mice with free access to food and water were subjected to a standard 12 hr light/12 hr dark cycle, which consisted of 48 hr acclimation period followed by 24 hr of sampling. Respiratory gases were measured by using the GA-3 gas analyzer (Sable Systems, Inc., Las Vegas, NV, USA) using a pull-mode, negative-pressure system. Air flow was measured and controlled by FR-8 (Sable Systems, Inc., Las Vegas, NV, USA), with a set flow rate of 2000 mL/min. Water vapor was continuously measured and its dilution effect on O2 and CO2 was mathematically compensated. Effective mass was calculated by [body mass]0.75. Fat oxidation (FO) and carbohydrate oxidation (CHO) were calculated as FO=1.69×VO2−1.69×VCO2 and CHO=4.57×VCO2−3.23×VO2 and expressed as g/d/kg^eff.Mass.
Locomotor activity: Locomotor activity was quantified by the number of disruptions of infrared XYZ beam arrays with a beam spacing of 0.25 cm in the Promethion High-Definition Behavioral Phenotyping System (Sable Instruments, Inc., Las Vegas, NV, USA).
Glucose tolerance (ipGTT) test and insulin sensitivity tests (ipIST): Mice that fasted overnight were injected with glucose (1.5 g/kg, IP), followed by a tail blood collection at 0, 15, 30, 45, 60, 90, 120 min. Blood glucose levels were determined using the Elite glucometer (Bayer, Pittsburgh, PA). Two days later, mice were fasted for 6 hr before receiving insulin (0.75 U/kg, IP; Eli Lilly, DC, USA or Actrapid® vial, novo nordisk A/S, Denmark), and blood glucose levels were determined at the same intervals.
Creatinine clearance was calculated using urine and serum creatinine levels (CCr mL/h=Urine creatinine mg/dL×Urine volume/Serum creatinine mg/dL×24 hr). Fasting blood glucose was measured using the Elite glucometer (Bayer, Pittsburgh, PA). […]

[4] = male, C57BL/6J, mouse, in vivo, po, 10 mg/kg

In the case of `O=S(=O)(NC1CCCOc2c1nn(-c1ccccc1Cl)c2-c1ccc(Cl)cc1)c1ccc(Cl)cc1` (stereo not drawn) [BNS808, 4-chloro-N-[2-(2-chlorophenyl)-3-(4-chlorophenyl)-5,6,7,8-tetrahydrooxepino[3,2-c]pyrazol-8-yl]benzenesulfonamide], the “toxicity on AMES strains” value [1] is reported as “no toxicity”, the “AMES result (positive/negative)” value ([1]; TA98, S9 no) is reported as “negative” and the “AMES result (positive/negative)” value ([1]; TA98, S9 yes) is reported as “negative”. The “increase in reversion over the negative control” value [1] was < 2 fold, the “AMES result (positive/negative)” value ([1]; TA100, S9 no) was “negative” and the “AMES result (positive/negative)” value ([1]; TA100, S9 yes) was “negative”. For the same molecule, the Liver/Plasma ratio ([2]; 1 h post 10 mg/kg oral administration, C57BL/6J male mice) was 13.0, the Kp at 1 h ([2]; mouse, in vivo, 1 h post 10 mg/kg oral administration, C57BL/6J male mice, read-out: Brain/Plasma ratio) was 1.07 and the efflux ratio at 2.5 h, 2 μM (P-gp (MDR1, ABCB1); efflux ratio in the presence of P-gp inhibitor GF120918, read-out: MDR1 B:A/A:B (+P-gp inhibitor)) was 1.88. The “Rank Papp” value (MDR1-MDCKII cells; MDCK-MDR1) was “Low”, the “MDR1 B:A/A:B” value (MDR1-MDCKII cells; efflux ratio, without P-gp inhibitor) was 3.95 and the Hill slope (hERG potassium channels) was 0.89. The “potential for cardiotoxicity (QT prolongation)” value (hERG potassium channels) was “low”, the IC50 (hERG potassium channels) was 5.39 µM and the “reduction of the body weight” value ([3]; 1 mg/kg daily PO, DIO mice on HFD, after 24 days) was ~15%. For the same molecule, the ambulatory activity ([3]; 1 mg/kg/day continued PO, DIO mice) was “did not affect”.
In the case of `Cc1ccc(C)c(OCCCC(C)(C)C(=O)NC2CCCOc3c2nn(-c2ccccc2Cl)c3-c2ccc(Cl)cc2)c1` (stereo not drawn) [BNS822, N-[2-(2-chlorophenyl)-3-(4-chlorophenyl)-5,6,7,8-tetrahydrooxepino[3,2-c]pyrazol-8-yl]-5-(2,5-dimethylphenoxy)-2,2-dimethyl-pentanamide], the “toxicity on AMES strains” value [1] is reported as “no toxicity”, the “AMES result (positive/negative)” value ([1]; TA98, S9 no) is reported as “negative” and the “AMES result (positive/negative)” value ([1]; TA98, S9 yes) is reported as “negative”. For the same molecule, the “increase in reversion over the negative control” value [1] was < 2 fold, the “AMES result (positive/negative)” value ([1]; TA100, S9 no) was “negative” and the “AMES result (positive/negative)” value ([1]; TA100, S9 yes) was “negative”. The Kp at 1 h [2, 4] was < 0.02, the concentration at 1 h [2, 4] was 1.34 ng/g and the Brain/Plasma ratio ([2]; male, C57BL/6J, mouse, in vivo, po, 10 mg/kg, 1 h) was <0.02. For the same molecule, the Papp at 2.5 h, 2 μM (P-gp (MDR1, ABCB1); 2 μM, A to B, 2.5 hours) was < 0.02 ×10⁻⁶ cm/s, the efflux ratio at 2.5 h, 2 μM (P-gp (MDR1, ABCB1); efflux ratio, without P-gp inhibitor, read-out: MDR1 B:A/A:B) was > 3.62 and the P-gp substrate (MDR1-MDCKII cells) was “P-gp substrates and Yes”. The “Rank Papp” value (MDR1-MDCKII cells) was “Low”, the “potential for cardiotoxicity (QT prolongation)” value (hERG potassium channels) was “low” and the IC50 (hERG potassium channels) was > 30 µM. For the same molecule, the weight loss ([3]; 20 mg/kg continued administration, DIO mice) was 20%, the body weight ([3]; 20 mg/kg/day PO, DIO mice) was “significantly reduced” and the food intake ([3]; 20 mg/kg/day PO, DIO mice) was “significant decrease”. The “circulating fed insulin (plasma) levels” value ([3]; 20 mg/kg/day PO, DIO/HFD mice) was “significantly lower; also recorded: significant reductions”, the “glucose levels in fed and fasting conditions” value ([3]; 20 mg/kg/day PO, DIO/HFD mice) was “no change; also recorded: no significant changes” and the “glucose tolerance (GTT, AUC)” value ([3]; 20 mg/kg/day PO, DIO/HFD mice) was “improved; also recorded: significant reductions”. For the same molecule, the “insulin sensitivity (ITT)” value ([3]; 20 mg/kg/day PO, DIO/HFD mice) was “no improvement; also recorded: no significant changes”, the ALT levels ([3]; 20 mg/kg/day PO, HFD mice) was “Significant reductions” and the “fat vacuoles deposition in the liver” value ([3]; 20 mg/kg/day PO, HFD mice) was “reduction”. The “liver TG content” value ([3]; 20 mg/kg/day PO, HFD mice) was “Significant reductions” and the liver cholesterol ([3]; 20 mg/kg/day PO, HFD mice) was “not”.
